Experimental data reported in PMC13415951 (Journal of Experimental Botany, 2026).
Substitutions are numbered along the chain they refer to.

Columns and labels:
BdUGT5g03300 [1] = biological target: T1, BdUGT5g03300 (Brachypodium distachyon, UniProt I1IW79); type: biochemical
T1 sequence (I1IW79 1-469): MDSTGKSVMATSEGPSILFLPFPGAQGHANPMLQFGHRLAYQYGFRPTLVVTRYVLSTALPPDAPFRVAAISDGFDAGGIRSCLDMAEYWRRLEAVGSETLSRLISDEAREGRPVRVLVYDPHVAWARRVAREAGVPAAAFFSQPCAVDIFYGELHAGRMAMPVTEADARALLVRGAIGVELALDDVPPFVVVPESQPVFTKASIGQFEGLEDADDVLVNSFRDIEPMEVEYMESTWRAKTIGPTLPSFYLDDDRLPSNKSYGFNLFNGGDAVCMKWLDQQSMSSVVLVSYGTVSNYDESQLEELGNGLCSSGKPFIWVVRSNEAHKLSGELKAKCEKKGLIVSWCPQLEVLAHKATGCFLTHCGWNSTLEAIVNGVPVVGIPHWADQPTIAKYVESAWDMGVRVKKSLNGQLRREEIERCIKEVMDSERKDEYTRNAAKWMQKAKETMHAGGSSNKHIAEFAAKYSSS

OsUGT79 = biological target: T2, OsUGT79 (Oryza sativa subsp. japonica, UniProt Q7XT97); test: biochemical; type: biochemical
T2 construct: made in house; host or cells: E. coli
T2 sequence (Q7XT97 1-466): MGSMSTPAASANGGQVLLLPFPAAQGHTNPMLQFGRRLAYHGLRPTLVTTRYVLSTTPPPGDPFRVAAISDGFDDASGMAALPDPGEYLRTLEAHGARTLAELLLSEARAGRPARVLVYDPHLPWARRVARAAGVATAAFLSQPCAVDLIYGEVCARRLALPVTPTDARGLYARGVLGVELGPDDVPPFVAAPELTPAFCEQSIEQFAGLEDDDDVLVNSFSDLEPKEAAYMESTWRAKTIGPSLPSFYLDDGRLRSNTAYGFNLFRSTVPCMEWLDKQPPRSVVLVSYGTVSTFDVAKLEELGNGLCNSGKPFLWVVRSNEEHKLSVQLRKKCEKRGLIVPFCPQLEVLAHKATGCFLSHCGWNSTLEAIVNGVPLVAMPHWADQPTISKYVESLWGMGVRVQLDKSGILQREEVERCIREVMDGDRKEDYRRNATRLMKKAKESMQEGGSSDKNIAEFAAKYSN

[2] = test system: wheat cultivar Apogee seedlings; design: species or system Triticum aestivum; settings: in vivo
B. distachyon Bd21-3 = test system: B. distachyon Bd21-3; design: species or system Brachypodium distachyon; settings: in vivo
BdUGT5g03300 [3] = biological target: T1, BdUGT5g03300; test: biochemical
[4] = biological target: T3, OsUGT79 H122A/L123A/Q202A (Oryza sativa subsp. japonica, UniProt Q7XT97, H122A/L123A/Q202A); type: biochemical
T3 sequence (Q7XT97 1-466 H122A/L123A/Q202A): T2 sequence (Q7XT97 1-466) with H122A, L123A, Q202A

[5] = test system: marine and terrestrial (human pathogenic) fungi; design: method as in Strongman et al., 1987; settings: ref Strongman et al., 1987; cited from earlier work
[6] = biological target: T3, OsUGT79 H122A/L123A/Q202A; test: biochemical; type: biochemical
HvUGT13248 = biological target: T4, HvUGT13248 (Hordeum vulgare subsp. vulgare, UniProt M0Y4P1); test: biochemical; type: biochemical; design: made in house; host or cells: E. coli
T4 sequence (M0Y4P1 1-475): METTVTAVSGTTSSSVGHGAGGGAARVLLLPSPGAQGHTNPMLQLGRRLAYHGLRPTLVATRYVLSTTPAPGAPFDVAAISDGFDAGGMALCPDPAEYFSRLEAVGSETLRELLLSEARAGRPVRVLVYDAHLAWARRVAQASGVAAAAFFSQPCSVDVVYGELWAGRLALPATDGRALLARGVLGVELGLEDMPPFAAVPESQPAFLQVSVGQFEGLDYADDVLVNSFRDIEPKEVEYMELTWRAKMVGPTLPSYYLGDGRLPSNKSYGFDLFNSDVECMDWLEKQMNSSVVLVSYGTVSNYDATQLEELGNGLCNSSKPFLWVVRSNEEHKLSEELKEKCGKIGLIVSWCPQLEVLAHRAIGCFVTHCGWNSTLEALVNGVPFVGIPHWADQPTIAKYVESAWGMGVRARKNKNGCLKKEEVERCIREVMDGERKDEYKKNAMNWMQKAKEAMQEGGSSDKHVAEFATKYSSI

Heliothis zea larvae = test system: Heliothis zea larvae; design: method as in Dowd et al., 1989; settings: ref Dowd et al., 1989; cited from earlier work
[7] = read-out: Glucosylation rate of DON, percentage of the control

CC1(C)CCC[C@]2(C)[C@@H]3[C@H]1[C@@H](O)[C@@]2(C)C[C@H]3O [CUL, culmorin]
Increase of apparent KM with DON (BdUGT5g03300 [1]): ~50 fold | K ic of CUL (competitive inhibition, DON as variable substrate) (BdUGT5g03300 [1]): low µM range | K iu of CUL (uncompetitive inhibition, UDP-glucose as variable substrate) (BdUGT5g03300 [1]): 1.4 µM | Ki (BdUGT5g03300 [1]; read-out: K ic of CUL (competitive inhibition, DON as variable substrate)): < 1 µM | Kd (BdUGT5g03300 [1]; read-out: KD of CUL at the acceptor binding site (implied by kinetics)): ~1 µM | K iu of CUL (uncompetitive inhibition, DON as variable substrate) (OsUGT79): 208 µM | K iu of CUL (uncompetitive inhibition, UDP-glucose as variable substrate) (OsUGT79): 124 µM | Ki (OsUGT79): 146 µM | Effect of CUL applied together with DON on root length [2]: significantly increased the degree of reduction of root length | Effect on primary and total root length [2]: did not cause a significant change | Effect of CUL alone on root length (B. distachyon Bd21-3): did not elicit any significant effect | Effect of CUL with 2 mg l^−1 DON on root length (B. distachyon Bd21-3): clear dose-dependent synergistic effect | Specific activity (glucoside formation) (BdUGT5g03300 [3]): ≈ 1×10^−3 nmol min^−1 mg^−1 | Specific activity with CUL, fold below the value obtained with DON (BdUGT5g03300 [3]): ~1000 fold | Glucosylation rate of DON, percentage of the control (BdUGT5g03300 [3]; 25 µM): 0.84±0.03% | remaining activity at 25 µM (BdUGT5g03300 [3]; [7]): < 1% | remaining activity at 125 µM (BdUGT5g03300 [3]; [7]): 0.19 ± 0.01% | Specific activity (glucoside formation) [4]: 2.89 ± 0.10 nmol/min/mg | Anti-fungal activity [5]: Weak anti-fungal activity | K iu of CUL (uncompetitive inhibition, DON as variable substrate) [6]: 217 µM | Ki [6]: 65 µM | Increase of apparent KM of DON (HvUGT13248): ~10 fold | K iu of CUL (uncompetitive inhibition, UDP-glucose as variable substrate) (HvUGT13248): 91 µM | Ki (HvUGT13248): 56 µM | Effect on growth of Heliothis zea larvae (Heliothis zea larvae): no negative effects | Effect on mortality of Heliothis zea larvae in combination with DON (Heliothis zea larvae): significantly increases mortality
